Measured values taken from publication PMC5384871 (British journal of haematology, 2017).

Columns and labels:
Assay in all cases: biochemical kinase assay at […] ATP
Conditions in all cases: read-out: NDI-031301
[1] = target: TYK2 (Homo sapiens, UniProt P29597)
[2] = target: JAK2 (Homo sapiens, UniProt O60674)
[3] = target: T1, JAK3 (Homo sapiens, UniProt P52333)
T1 sequence (P52333 1-1124): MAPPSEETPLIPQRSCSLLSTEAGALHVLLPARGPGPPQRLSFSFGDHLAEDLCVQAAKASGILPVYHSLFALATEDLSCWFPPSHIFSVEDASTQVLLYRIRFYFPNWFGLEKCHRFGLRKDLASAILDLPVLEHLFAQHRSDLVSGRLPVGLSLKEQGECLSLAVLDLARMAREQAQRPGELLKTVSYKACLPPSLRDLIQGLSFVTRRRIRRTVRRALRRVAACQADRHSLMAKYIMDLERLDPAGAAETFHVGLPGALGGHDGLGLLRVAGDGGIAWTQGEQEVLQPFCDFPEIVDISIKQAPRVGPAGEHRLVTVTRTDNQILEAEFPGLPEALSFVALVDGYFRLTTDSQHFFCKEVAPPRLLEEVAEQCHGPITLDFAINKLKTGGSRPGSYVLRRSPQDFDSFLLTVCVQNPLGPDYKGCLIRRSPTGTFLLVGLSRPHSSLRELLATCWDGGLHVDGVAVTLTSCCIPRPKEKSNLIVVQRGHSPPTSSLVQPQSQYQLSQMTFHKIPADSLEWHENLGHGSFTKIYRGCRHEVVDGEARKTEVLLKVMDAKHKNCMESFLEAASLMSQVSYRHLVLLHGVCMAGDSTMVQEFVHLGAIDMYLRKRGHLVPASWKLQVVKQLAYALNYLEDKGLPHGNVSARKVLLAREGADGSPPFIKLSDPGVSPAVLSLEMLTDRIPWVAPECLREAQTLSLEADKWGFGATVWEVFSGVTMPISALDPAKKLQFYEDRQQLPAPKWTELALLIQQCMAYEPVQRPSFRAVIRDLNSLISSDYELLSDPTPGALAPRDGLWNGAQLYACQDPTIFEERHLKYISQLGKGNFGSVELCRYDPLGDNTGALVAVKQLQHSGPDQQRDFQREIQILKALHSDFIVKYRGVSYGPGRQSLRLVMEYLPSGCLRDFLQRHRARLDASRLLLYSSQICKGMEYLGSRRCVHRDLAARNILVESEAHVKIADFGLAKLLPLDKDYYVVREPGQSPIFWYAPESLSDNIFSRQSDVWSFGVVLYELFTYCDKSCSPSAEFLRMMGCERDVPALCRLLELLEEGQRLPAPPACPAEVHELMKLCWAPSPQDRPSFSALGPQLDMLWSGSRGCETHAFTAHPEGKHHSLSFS

[4] = target: JAK1 (Homo sapiens, UniProt P23458)
Sequence of JAK1 (P23458 whole entry): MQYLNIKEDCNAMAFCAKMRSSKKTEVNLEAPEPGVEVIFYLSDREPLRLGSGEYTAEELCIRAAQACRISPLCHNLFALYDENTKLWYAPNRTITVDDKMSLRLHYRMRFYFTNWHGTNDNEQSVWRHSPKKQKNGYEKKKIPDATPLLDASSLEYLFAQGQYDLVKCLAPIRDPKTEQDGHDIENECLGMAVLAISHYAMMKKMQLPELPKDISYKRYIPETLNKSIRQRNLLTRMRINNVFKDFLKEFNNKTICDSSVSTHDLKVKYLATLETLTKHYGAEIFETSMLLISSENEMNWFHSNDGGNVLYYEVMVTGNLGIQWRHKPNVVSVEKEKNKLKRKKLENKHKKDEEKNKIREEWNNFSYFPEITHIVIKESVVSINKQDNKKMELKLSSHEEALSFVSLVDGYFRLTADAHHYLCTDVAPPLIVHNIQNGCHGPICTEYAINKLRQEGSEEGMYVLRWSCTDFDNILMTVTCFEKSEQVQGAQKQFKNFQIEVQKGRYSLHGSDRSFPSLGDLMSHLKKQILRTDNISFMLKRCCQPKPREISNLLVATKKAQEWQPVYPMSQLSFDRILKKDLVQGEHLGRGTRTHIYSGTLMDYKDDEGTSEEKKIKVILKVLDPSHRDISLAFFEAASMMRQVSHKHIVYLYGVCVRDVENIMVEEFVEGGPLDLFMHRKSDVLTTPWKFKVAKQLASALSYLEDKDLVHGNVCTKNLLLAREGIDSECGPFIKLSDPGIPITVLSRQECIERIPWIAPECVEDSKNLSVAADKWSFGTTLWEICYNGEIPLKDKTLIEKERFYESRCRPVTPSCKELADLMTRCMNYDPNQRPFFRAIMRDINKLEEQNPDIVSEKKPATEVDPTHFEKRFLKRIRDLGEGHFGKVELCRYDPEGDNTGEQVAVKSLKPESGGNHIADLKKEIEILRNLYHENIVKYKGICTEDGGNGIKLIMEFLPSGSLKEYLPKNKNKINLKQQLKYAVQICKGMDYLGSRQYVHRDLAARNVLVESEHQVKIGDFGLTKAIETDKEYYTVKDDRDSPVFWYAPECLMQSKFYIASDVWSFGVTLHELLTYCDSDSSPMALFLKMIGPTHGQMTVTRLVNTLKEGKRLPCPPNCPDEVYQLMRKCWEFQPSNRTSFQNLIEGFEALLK

Sequence of JAK2 (O60674 whole entry): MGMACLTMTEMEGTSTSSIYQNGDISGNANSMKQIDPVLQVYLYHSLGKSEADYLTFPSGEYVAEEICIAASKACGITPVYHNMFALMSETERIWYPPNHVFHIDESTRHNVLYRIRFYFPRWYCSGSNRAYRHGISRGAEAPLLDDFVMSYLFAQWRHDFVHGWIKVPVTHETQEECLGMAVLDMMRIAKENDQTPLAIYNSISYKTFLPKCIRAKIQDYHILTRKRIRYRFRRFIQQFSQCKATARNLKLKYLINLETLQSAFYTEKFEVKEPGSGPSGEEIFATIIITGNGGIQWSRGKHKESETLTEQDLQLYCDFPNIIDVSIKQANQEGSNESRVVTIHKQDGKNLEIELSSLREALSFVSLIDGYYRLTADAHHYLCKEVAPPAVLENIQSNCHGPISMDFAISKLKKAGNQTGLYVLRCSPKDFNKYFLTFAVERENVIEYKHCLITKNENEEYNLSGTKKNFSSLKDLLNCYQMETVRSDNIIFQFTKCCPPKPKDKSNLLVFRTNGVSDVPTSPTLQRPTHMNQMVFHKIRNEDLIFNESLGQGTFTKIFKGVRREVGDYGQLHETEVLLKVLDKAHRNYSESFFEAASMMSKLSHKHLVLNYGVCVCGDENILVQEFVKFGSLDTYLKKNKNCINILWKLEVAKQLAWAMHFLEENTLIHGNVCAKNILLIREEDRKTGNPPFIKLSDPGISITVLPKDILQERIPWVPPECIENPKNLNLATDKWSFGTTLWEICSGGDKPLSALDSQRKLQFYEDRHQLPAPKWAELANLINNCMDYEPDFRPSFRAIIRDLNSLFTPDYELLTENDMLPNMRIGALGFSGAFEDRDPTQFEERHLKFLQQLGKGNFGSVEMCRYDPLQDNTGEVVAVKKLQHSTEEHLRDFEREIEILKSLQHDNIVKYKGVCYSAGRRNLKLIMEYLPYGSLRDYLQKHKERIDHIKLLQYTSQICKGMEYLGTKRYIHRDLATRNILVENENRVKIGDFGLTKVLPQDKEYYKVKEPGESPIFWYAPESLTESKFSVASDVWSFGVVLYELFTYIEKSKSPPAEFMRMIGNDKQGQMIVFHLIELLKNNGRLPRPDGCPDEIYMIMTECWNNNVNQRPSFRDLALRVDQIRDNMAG
Sequence of TYK2 (P29597 whole entry): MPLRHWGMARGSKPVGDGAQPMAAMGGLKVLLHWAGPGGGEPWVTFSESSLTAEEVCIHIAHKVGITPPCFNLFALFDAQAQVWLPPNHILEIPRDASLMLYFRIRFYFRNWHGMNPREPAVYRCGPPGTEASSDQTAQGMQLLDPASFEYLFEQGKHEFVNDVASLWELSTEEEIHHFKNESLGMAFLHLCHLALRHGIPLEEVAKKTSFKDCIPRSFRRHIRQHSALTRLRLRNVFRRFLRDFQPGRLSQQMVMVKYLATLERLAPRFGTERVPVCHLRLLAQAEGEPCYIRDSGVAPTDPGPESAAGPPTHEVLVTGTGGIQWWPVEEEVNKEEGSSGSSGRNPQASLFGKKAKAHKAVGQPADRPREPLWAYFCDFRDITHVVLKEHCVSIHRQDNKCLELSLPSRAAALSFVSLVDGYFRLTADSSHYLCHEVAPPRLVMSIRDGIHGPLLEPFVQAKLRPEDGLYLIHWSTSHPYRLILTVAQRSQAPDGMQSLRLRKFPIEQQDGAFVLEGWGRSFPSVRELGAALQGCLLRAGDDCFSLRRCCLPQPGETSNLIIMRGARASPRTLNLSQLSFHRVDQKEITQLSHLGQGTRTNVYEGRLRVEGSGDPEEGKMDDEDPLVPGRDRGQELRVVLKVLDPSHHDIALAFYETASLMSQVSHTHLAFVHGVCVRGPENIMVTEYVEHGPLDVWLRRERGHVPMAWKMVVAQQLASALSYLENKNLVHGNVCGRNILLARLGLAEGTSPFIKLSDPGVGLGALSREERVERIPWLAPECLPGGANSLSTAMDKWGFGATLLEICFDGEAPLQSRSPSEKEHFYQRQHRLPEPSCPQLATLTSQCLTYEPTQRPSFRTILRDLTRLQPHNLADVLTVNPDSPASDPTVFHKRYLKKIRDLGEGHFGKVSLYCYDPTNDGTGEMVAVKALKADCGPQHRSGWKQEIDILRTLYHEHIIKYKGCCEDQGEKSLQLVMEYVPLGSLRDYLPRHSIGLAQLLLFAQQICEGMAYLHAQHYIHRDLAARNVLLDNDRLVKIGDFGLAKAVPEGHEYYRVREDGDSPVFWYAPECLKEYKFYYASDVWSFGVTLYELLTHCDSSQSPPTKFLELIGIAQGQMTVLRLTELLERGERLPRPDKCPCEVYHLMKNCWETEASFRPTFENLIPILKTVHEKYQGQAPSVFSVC

NDI-031301
Ki [1]: 130 nM
Ki [2]: 2750 nM
Ki [3]: 2480 nM
Ki [4]: 2200 nM
